As usually defined, the IC50 is the concentration that gives 50% inhibition. A low value points to greater potency.

Here are results for one molecule from article PMC12426469, “A Covalent and Modulable Inhibitor of the Tubulin‐Microtubule System: Insights Into the Mechanism of Cacalol” (Chemical Biology & Drug Design, 2025).

The assay concerns the target T1, α-tubulin (Sus scrofa, UniProt P02550).
T1 construct: gene TUBA1A; purified porcine brain α,β-tubulin; modified peptide 340SIQFVDWCPTGFK352 of α-tubulin; with β-tubulin
As to the kind of experiment: LC-MS of trypsin-digested tubulin showing covalent adduct; IC50 from in vitro tubulin polymerization assay. Format: biochemical.

T1 sequence (P02550 whole entry): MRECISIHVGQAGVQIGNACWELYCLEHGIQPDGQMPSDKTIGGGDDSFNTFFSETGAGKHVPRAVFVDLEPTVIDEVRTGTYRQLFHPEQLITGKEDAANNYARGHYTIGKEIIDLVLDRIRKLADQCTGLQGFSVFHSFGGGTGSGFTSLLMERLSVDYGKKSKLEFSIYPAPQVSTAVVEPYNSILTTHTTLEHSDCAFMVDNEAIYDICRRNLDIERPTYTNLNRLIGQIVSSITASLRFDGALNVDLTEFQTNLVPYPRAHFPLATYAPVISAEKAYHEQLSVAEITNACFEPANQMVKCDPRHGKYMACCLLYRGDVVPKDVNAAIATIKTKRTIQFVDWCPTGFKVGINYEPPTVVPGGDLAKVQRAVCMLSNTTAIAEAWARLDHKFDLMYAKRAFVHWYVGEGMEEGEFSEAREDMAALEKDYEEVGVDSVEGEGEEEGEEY
T1 sequence (P02554 whole entry partner): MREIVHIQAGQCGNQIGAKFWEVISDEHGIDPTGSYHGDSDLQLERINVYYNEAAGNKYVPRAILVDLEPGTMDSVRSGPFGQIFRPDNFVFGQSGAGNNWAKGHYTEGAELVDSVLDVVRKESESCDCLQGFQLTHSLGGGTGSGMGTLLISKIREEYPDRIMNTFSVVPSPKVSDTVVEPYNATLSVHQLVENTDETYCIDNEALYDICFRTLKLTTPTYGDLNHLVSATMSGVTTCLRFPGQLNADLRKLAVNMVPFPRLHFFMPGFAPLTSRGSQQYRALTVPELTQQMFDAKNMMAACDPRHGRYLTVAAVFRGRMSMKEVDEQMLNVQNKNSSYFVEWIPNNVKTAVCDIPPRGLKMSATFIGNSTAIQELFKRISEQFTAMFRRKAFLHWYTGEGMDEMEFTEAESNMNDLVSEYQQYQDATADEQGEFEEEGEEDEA

`C=C1C2=C(CCC[C@@H]2C)C(=O)c2occ(C)c21` [compound 2, (S)‐3,5‐Dimethyl‐4‐Methylene‐5,6,7,8‐Tetrahydronaphtho[2,3‐b]Furan‐9(4H )‐One] gave an IC50 of 43 µM.
